From PubChem BioAssay AID1963448 (Molecular Pharmacology Branch, DTP, NCI, 2024)
Where “and” joins values, the source holds several entries; their conditions need not be identical. Identical values can stand only once.

System: 616215-338-R-J1-PDC complex spheroid growth, % test/control
Test: Anticancer human tumor 616215-338-R-J1-PDC patient-derived colon adenocarcinoma cell line growth inhibition [Asc]
Conditions: for viability, T/C: stronger effect = lower value
Description: Multicellular complex tumor spheroid response to apoptosis pathway targeting inhibitors Alrizomadlin, Pelcitoclax, and Dasminapant in combination with a variety of drugs and investigational agents in selected tumor cell lines
The MDM2 inhibitor alrizomadlin, the Bcl-2/Bcl-xL inhibitor pelcitoclax, and the IAPs inhibitor dasminapant were evaluated both individually and in combination with standard of care and investigational anticancer small molecules within a complex spheroid model of solid tumors. . Complex spheroids include a stromal component modeled by human endothelial cells (HUVEC) and fibroblasts modeled by human mesenchymal stem cells (MSCs). The concentration ranges selected for each drug and investigational agent were based upon clinically achievable concentrations if the clinical Cmax of the agent was known.
Compounds. The drugs and investigational agents: alrizomadlin (APG-115; NSC831270), pelcitoclax (APG-1252; NSC835773), dasminapant (APG-1387;NSC834197), TAK-243 (NSC785004), copanlisib (NSC809693), olaparib (NSC753686), talazoparib (NSC767125), cobimetinib (NSC 768068), eltanexor (KPT-8602, NSC 794443), abemaciclib (NSC 768073), sotorasib (NSC818433), adagrasib (NSC 831453), MRTX-1133 (NSC 836407), Iadademestat (ORY1001, NSC 806812), and RMC-4630 (NSC839698), were obtained from the NCI Developmental Therapeutics Program Chemical Repository. The FDA-approved anticancer drug set is available from the Developmental Therapeutics Program at https://dtp.cancer.gov/organization/dscb/obtaining/available plates.htm. […] The stock solutions were prepared in dimethyl sulfoxide (DMSO, Sigma-Aldrich, St. Louis, MO, cat. D2650) at 800-fold the tested concentration and stored at -70 degrees C prior to their use. All drugs and investigational agents were tested over a range starting from a high concentration at or near the clinical Cmax and decreasing in half-log increments. If the clinical Cmax for an agent had not been determined, the highest concentration tested was 10 microM.
The patient-derived cancer (PDC) cell lines include five colon adenocarcinomas: 186277-243-T-J2-PDC, 616215-338-R-J1-PDC, 439559-082-T-J2-PDC, 463943-066-T-J2-PDC, and 519858-162-T-J1-PDC; three pancreatic carcinomas: 323965-272-R-J2-PDC, 521955-158-R6-J3-PDC, and 521955-158-R2-J5-PDC; two uterine sarcomas: 327498-152-R-J2-PDC and 993429-296-R-J1-PDC; two rhabdomyosarcomas: 755483-174-R-J1-PDC and 772245-204-R-J1-PDC; two soft tissue sarcomas: 126254-015-R-J1-PDC and 494315-158-R-J1-PDC; two malignant fibrous histiocytomas: 317291-083-R-J1-PDC and 596521-263-R-J1-PDC; two breast carcinomas: 171881-019-R-J1-PDC and 885512-296-R-J2-PDC; and one ovarian carcinoma: 6556581-035-R-J-PDC were obtained from the NCI PDMR, (https://pdmr.cancer.gov). The established cell lines HSSY-2 synovial sarcoma (RRID:CVCL 8719), SYO-1 synovial sarcoma (RRID:CVCL_7146), MPNST malignant peripheral neural sheath tumor were obtained from the Sloan Kettering Institute. The following established cell lines were purchased from the American Type Culture Collection (ATCC, Manassas, VA), Sor the received from the NCI repository:, PANC-1 pancreatic carcinoma (CRL-1469, RRID:CVCL_0480), OVCAR-5 ovarian carcinoma (RRID:CVCL_1628), OVCAR-8 ovarian carcinoma (RRID:CVCL_1629), , MCF-7 breast carcinoma (CRL-12584, RRID:CVCL_0031), MDA-MB-231 breast carcinoma (CRL-12532, RRID:CVCL_0062), NCI-H1876 small cell lung carcinoma (CRL-5902, RRID:CVCL_1503), NCI-H510A small cell lung carcinoma (HTB-184, RRID:CVCL_1565), NCI-H1417 (CRL-5869, RRID:CVCL_1469), and NCI-H196 small cell lung carcinoma (CRL-5823, RRID:CVCL_1509). Dr. Peter Houghton (Greehey Children's Cancer Research Institute, University of Texas Health Science Center, San Antonio, TX) provided Rh-18 rhabdomyosarcoma (RRID:CVCL_1659). Pooled donor human umbilical vein endothelial cells (HUVEC, Lonza, cat. CC-2519) and human mesenchymal stem cells (hMSC, Lonza, cat. PT-2501) were purchased from Lonza (Walkersville, MD).
Cell Culture. […]

[1] = curve of first compound, second compound 0.1 µM
[2] = curve of first compound, second compound 0.316 µM
[3] = curve of first compound, second compound 1 µM
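Further: spheroids exposed to agents for seven days before readout.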
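Wherever viability, T/C is given: 100% = DMSO vehicle control viability.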

Which results are given for C=CC(=O)N1CCN(c2nc(=O)n(-c3c(C)ccnc3C(C)C)c3nc(-c4c(O)cccc4F)c(F)cc23)C(C)C1 (centres undefined) + Cc1c(S(C)(=O)=O)c(-c2cc(F)cc(N3CCN(c4ccc(NS(=O)(=O)c5ccc(NC(CCN6CCC(C(=O)OCCCP(=O)(O)O)CC6)CSc6ccccc6)c(S(=O)(=O)C(F)(F)F)c5)cc4)CC3)c2)c(-c2ccc(Cl)cc2)n1C(C)C?
IC50 [1]: > 10000 nM; IC50 [2]: > 10000 nM; IC50 [3]: 2350 nM; IC50 (curve of first compound, second compound 3.16 µM): < 31.6 nM; IC50 (curve of first compound, second compound 10 µM): < 31.6 nM; viability, T/C (second compound 0.1 µM, first compound 0.0316 µM): 87.5%; viability, T/C (second compound 0.1 µM, first compound 0.1 µM): 89.8%; viability, T/C (second compound 0.1 µM, first compound 0.316 µM): 90.4%; viability, T/C (second compound 0.1 µM, first compound 1 µM): 92.9%; viability, T/C (second compound 0.1 µM, first compound 3.16 µM): 87.5%; viability, T/C (second compound 0.1 µM, first compound 10 µM): 88.3%; viability, T/C (second compound 0.316 µM, first compound 0.0316 µM): 87.7%; viability, T/C (second compound 0.316 µM, first compound 0.1 µM): 86.9%; viability, T/C (second compound 0.316 µM, first compound 0.316 µM): 84.5%; viability, T/C (second compound 0.316 µM, first compound 1 µM): 92.1%; viability, T/C (second compound 0.316 µM, first compound 3.16 µM): 83.4%; viability, T/C (second compound 0.316 µM, first compound 10 µM): 64.4%; viability, T/C (second compound 1 µM, first compound 0.0316 µM): 67.6%; viability, T/C (second compound 1 µM, first compound 0.1 µM): 74.5%; viability, T/C (second compound 1 µM, first compound 0.316 µM): 68%; viability, T/C (second compound 1 µM, first compound 1 µM): 61.6%; viability, T/C (second compound 1 µM, first compound 3.16 µM): 45.9%; viability, T/C (second compound 1 µM, first compound 10 µM): 42%; viability, T/C (second compound 3.16 µM, first compound 0.0316 µM): 36%; viability, T/C (second compound 3.16 µM, first compound 0.1 µM): 40.6%; viability, T/C (second compound 3.16 µM, first compound 0.316 µM): 37.9%; viability, T/C (second compound 3.16 µM, first compound 1 µM): 30.2%; viability, T/C (second compound 3.16 µM, first compound 3.16 µM): 22.3%; viability, T/C (second compound 3.16 µM, first compound 10 µM): 17.7%; viability, T/C (second compound 10 µM, first compound 0.0316 µM): 24.9%; viability, T/C (second compound 10 µM, first compound 0.1 µM): 26.2%; viability, T/C (second compound 10 µM, first compound 0.316 µM): 21.9%; viability, T/C (second compound 10 µM, first compound 1 µM): 20%; viability, T/C (second compound 10 µM, first compound 3.16 µM): 17.5%; viability, T/C (second compound 10 µM, first compound 10 µM): 5.58%

Which viability, T/C (compound 0.00316 µM) does the source give for CCN1CCN(Cc2ccc(Nc3ncc(F)c(-c4cc(F)c5nc(C)n(C(C)C)c5c4)n3)nc2)CC1 here?
Its viability, T/C is 98.2% and 91.4% and 109%.

What about the viability, T/C (compound 0.01 µM) of the same compound?
Its viability, T/C is 97.2% and 108% and 113%.

And the viability, T/C (compound 0.0316 µM)?
Its viability, T/C is 96.5% and 104% and 78.5%.

What about the viability, T/C (compound 0.1 µM) of the same compound?
The viability, T/C was 102% and 106% and 82.5%.

And the viability, T/C (compound 0.316 µM)?
The viability, T/C was 122% and 102% and 65.8%.

And the viability, T/C (compound 1 µM)?
Its viability, T/C is 130% and 117% and 34.9%.

And the IC50 (curve of compound)?
Its IC50 is > 1000 nM and 543 nM.

Which viability, T/C (compound 0.01 µM) does the source give for CNC(C)C(=O)NC1CN(S(=O)(=O)c2cccc(S(=O)(=O)N3CCC4CCC(C(=O)NC(c5ccccc5)c5ccccc5)N4C(=O)C(NC(=O)C(C)NC)C3)c2)CCC2CCC(C(=O)NC(c3ccccc3)c3ccccc3)N2C1=O (centres undefined) here?
Its viability, T/C is 105% [middle of 9 runs].

And the viability, T/C (compound 0.1 µM)?
The viability, T/C was 101% [middle of 9 runs].

What about the viability, T/C (compound 0.316 µM) of the same compound?
Its viability, T/C is 102% [middle of 9 runs].

What about the viability, T/C (compound 1 µM) of the same compound?
Its viability, T/C is 101% [middle of 9 runs].

And the IC50 (curve of compound)?
Its IC50 is over 1000 nM.

What does the source list for NC(=O)C(=Cn1cnc(-c2cc(C(F)(F)F)cc(C(F)(F)F)c2)n1)c1cncnc1 + CNC(C)C(=O)NC1CN(S(=O)(=O)c2cccc(S(=O)(=O)N3CCC4CCC(C(=O)NC(c5ccccc5)c5ccccc5)N4C(=O)C(NC(=O)C(C)NC)C3)c2)CCC2CCC(C(=O)NC(c3ccccc3)c3ccccc3)N2C1=O?
IC50 (curve of first compound, second compound 0.00316 µM): > 300 nM; IC50 (curve of first compound, second compound 0.01 µM): > 300 nM; IC50 (curve of first compound, second compound 0.0316 µM): > 300 nM; IC50 [1]: > 300 nM; IC50 [2]: > 300 nM; IC50 [3]: 191 nM; viability, T/C (second compound 0.00316 µM, first compound 0.000949 µM): 104%; viability, T/C (second compound 0.00316 µM, first compound 0.003 µM): 105%; viability, T/C (second compound 0.00316 µM, first compound 0.00949 µM): 94.3%; viability, T/C (second compound 0.00316 µM, first compound 0.03 µM): 83.3%; viability, T/C (second compound 0.00316 µM, first compound 0.0949 µM): 73.9%; viability, T/C (second compound 0.00316 µM, first compound 0.3 µM): 53.2%; viability, T/C (second compound 0.01 µM, first compound 0.000949 µM): 107%; viability, T/C (second compound 0.01 µM, first compound 0.003 µM): 108%; viability, T/C (second compound 0.01 µM, first compound 0.00949 µM): 96.2%; viability, T/C (second compound 0.01 µM, first compound 0.03 µM): 72%; viability, T/C (second compound 0.01 µM, first compound 0.0949 µM): 76.2%; viability, T/C (second compound 0.01 µM, first compound 0.3 µM): 71.4%; viability, T/C (second compound 0.0316 µM, first compound 0.000949 µM): 115%; viability, T/C (second compound 0.0316 µM, first compound 0.003 µM): 108%; viability, T/C (second compound 0.0316 µM, first compound 0.00949 µM): 95.8%; viability, T/C (second compound 0.0316 µM, first compound 0.03 µM): 64.6%; viability, T/C (second compound 0.0316 µM, first compound 0.0949 µM): 78.4%; viability, T/C (second compound 0.0316 µM, first compound 0.3 µM): 54.7%; viability, T/C (second compound 0.1 µM, first compound 0.000949 µM): 117%; viability, T/C (second compound 0.1 µM, first compound 0.003 µM): 110%; viability, T/C (second compound 0.1 µM, first compound 0.00949 µM): 102%; viability, T/C (second compound 0.1 µM, first compound 0.03 µM): 68.5%; viability, T/C (second compound 0.1 µM, first compound 0.0949 µM): 70.5%; viability, T/C (second compound 0.1 µM, first compound 0.3 µM): 68.5%; viability, T/C (second compound 0.316 µM, first compound 0.000949 µM): 118%; viability, T/C (second compound 0.316 µM, first compound 0.003 µM): 118%; viability, T/C (second compound 0.316 µM, first compound 0.00949 µM): 105%; viability, T/C (second compound 0.316 µM, first compound 0.03 µM): 61.1%; viability, T/C (second compound 0.316 µM, first compound 0.0949 µM): 60.9%; viability, T/C (second compound 0.316 µM, first compound 0.3 µM): 67%; viability, T/C (second compound 1 µM, first compound 0.000949 µM): 112%; viability, T/C (second compound 1 µM, first compound 0.003 µM): 110%; viability, T/C (second compound 1 µM, first compound 0.00949 µM): 71.1%; viability, T/C (second compound 1 µM, first compound 0.03 µM): 88.2%; viability, T/C (second compound 1 µM, first compound 0.0949 µM): 59%; viability, T/C (second compound 1 µM, first compound 0.3 µM): 41.5%
